Data: patent publication US4835180A, “N-(ω-cyanoalkyl)aminophenols and use as inhibitors of lipoxygenase activity” (Sterling Drug Inc., priority 1986, dated 1989)
Structures can show the parent of a compound that is named as a salt. Where two headings read alike, the source gives them in different places.

Tests used:
[1] = biological target: T1, lipoxygenase derived from rat basophilic leukemia (RBL-1) cells (Rattus norvegicus, UniProt P12527); assay: % inhibition of formation of lipoxygenase products 5,12-di-HETE (L1) and 5-HETE (L2) in RBL-1 microsomal homogenate; type: biochemical; set-up: inhibition: dose or concentration left out as unconfirmed
T1 construct: Single cell suspensions of RBL-1 cells are homogenized to obtain the microsomal fraction containing lipoxygenase and cyclooxygenase; endogenous in cells; host or cells: RBL-1 (rat basophilic leukemia) cells, homogenate/microsomal fraction
T1 sequence (P12527 1-673): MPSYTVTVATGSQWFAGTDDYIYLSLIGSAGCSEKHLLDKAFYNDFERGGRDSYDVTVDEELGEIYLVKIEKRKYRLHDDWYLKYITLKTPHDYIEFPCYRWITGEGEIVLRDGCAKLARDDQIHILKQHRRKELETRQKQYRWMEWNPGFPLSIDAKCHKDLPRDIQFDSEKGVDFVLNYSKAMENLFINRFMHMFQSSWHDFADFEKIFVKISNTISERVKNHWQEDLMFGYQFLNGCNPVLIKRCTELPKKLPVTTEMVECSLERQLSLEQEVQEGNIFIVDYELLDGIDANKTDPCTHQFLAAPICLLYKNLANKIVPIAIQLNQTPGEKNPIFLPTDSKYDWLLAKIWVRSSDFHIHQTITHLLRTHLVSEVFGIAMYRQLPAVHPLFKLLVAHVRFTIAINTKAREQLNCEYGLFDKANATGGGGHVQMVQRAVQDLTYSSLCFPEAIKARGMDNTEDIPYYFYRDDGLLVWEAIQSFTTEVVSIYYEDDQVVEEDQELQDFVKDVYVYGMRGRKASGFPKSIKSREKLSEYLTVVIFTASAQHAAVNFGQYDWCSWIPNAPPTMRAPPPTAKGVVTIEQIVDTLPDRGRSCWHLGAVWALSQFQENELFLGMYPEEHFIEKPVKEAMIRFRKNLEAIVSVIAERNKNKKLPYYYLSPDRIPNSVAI
Protocol: (§1) The primary screening test used is a determination of the inhibition of lipoxygenase and cyclooxygenase derived from rat basophilic leukemia (RBL-1) cells. The test was carried out according to the following procedure:
(§2) Single cell suspensions of RBL-1 cells are homogenized to obtain the microsomal fraction containing lipoxygenase and cyclooxygenase. Test compounds are added to the enzyme-containing homogenate for a 5 min. preincubation period at 37° C. prior to the addition of ^14 C-arachidonic acid substrate. Following incubation at 37° C. for 15 min., the reaction is stopped by the addition of 2M formic acid and the enzyme-substrate products are extracted into chloroform. An aliquot of the extract is evaporated to dryness, reconstituted in ether to 1/10 original volume, spotted on thin layer chromatography plates and chromatographed. The peak areas of radioactivity representing the products are located by scanning the plates. The quantity of products formed is estimated by measuring the height of the radioactivity peaks observed on the chromatographic scans. Alternatively, the areas of radioactivity are scraped from the plate and the ^14 C quantitated by scintillation counting. The percent inhibition in the formation of the cyclooxygenase product prostaglandin D2, designated as C1, and lipoxygenase products 5,12-di-HETE and 5-HETE, designated L1 and L2 respectively, are shown. Compounds with >50% inhibition of L1 and L2 at a screening concentration of 1 μM are considered active.

[2] = biological target: T2, cyclooxygenase derived from rat basophilic leukemia (RBL-1) cells (Rattus norvegicus, UniProt Q63921); assay: % inhibition of formation of cyclooxygenase product prostaglandin D2 (C1) in RBL-1 microsomal homogenate; type: biochemical; set-up: inhibition: dose or concentration left out as unconfirmed; settings: read-out: % Inhibition in vitro, C1 (prostaglandin D2)
T2 construct: Single cell suspensions of RBL-1 cells are homogenized to obtain the microsomal fraction containing lipoxygenase and cyclooxygenase; endogenous in cells; host or cells: RBL-1 (rat basophilic leukemia) cells, homogenate/microsomal fraction
T2 sequence (Q63921 27-602): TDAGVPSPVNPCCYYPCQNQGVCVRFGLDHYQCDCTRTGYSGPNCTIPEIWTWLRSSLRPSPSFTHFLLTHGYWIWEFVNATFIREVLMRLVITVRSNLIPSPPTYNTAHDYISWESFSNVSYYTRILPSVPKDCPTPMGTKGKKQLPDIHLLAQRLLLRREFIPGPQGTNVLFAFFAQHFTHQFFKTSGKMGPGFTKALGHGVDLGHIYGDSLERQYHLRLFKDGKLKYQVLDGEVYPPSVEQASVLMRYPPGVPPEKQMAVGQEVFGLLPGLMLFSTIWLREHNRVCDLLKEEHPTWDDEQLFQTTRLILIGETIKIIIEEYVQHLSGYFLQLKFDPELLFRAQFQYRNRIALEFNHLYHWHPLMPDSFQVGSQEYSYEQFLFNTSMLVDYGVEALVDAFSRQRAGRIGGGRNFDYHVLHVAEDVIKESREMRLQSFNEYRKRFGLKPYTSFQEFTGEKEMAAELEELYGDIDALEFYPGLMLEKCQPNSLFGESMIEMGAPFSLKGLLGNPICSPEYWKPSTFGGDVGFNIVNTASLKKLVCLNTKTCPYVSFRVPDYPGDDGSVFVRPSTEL
Protocol: as §1, §2

[3] = tested on: SRS-A component of immunologically induced bronchoconstriction; assay: effect on the SRS-A component of immunologically induced bronchoconstriction in guinea pigs; type: in vivo; settings: guinea pig
Protocol: The test was carried out according to the following procedure: Outbred female guinea pigs were sensitized to egg albumin by a 1 mL ip injection of a 1 mg/mL egg albumin alum suspension. Twelve to sixteen days after immunization, the animals were used for the test. They were anesthetized with urethane (1.5 gm/kg ip) and surgically prepared with a jugular vein canula connected to a three-way stopcock for administration of drugs and antigen challenge. The trachea was cannulated and the animal artifically respired. The intratracheal pressure was continuously recorded and expressed in mm Hg. Naproxen sodium (10 mg/kg) and pyrilamine maleate (0.3 mg/kg) in phosphate buffered saline, pH 7.2, were administered intravenously in a single solution seven minutes prior to antigen challenge. Propranolol (0.1 mg/kg) was also given iv three minutes prior to challenge with egg albumin (300 μg/kg iv). The animals were dosed orally with compounds in water or in a vehicle of 3% corn starch, 5% polyethylene glycol 400, and 0.34% Tween 8™ in water at one or four hours before challenge. Results were recorded as the maximum increase in intratracheal pressure following antigen challenge. Activity of the compounds was measured as percent inhibition of the mean peak intratracheal pressure in the group of dosed animals in comparison to the mean peak intratracheal pressure in the group of vehicle treated animals. The results are expressed in terms of % inhibition.

[4] = read-out: % Inhibition in vitro, L1 (5,12-di-HETE)
[5] = read-out: % Inhibition in vitro, L2 (5-HETE)
[6] = 100 mg/kg p.o., at 1 hour before challenge
[7] = 100 mg/kg p.o., at 4 hours before challenge
[8] = 0.25 h, line carries a superscript without letter (probably footnote a, 0.1 μM), read-out: % Inhibition in vitro, L1 (5,12-di-HETE)
[9] = 0.25 h, line carries a superscript without letter (probably footnote a, 0.1 μM), read-out: % Inhibition in vitro, L2 (5-HETE)
[10] = 0.25 h, line carries a superscript without letter (probably footnote a, 0.1 μM)

inhibition [1, 5] [%]	inhibition [2] [%]	inhibition at 1 µM [1, 8] [%]	inhibition at 1 µM [1, 9] [%]	inhibition at 1 µM [2, 10] [%]	Compound	% Inhibition in vivo (mean peak intratracheal pressure) [3, 6] [%]	% Inhibition in vivo (mean peak intratracheal pressure) [3, 7] [%]	also measured
85	14	–	–	–	CC(=O)Oc1ccc(N(C)CCCCCCC#N)cc1 [Example 6d, 7-[[4-(Acetyloxy)phenyl]methylamino]heptanenitrile]	–	–	inhibition [1, 4]: 91%
93	22	–	–	–	Cl.N#CCCCCCCNc1ccc(O)cc1F [Example 11c, 7-[(2-Fluoro-4-hydroxyphenyl)amino]heptanenitrile monohydrochloride]	7	30	inhibition [1, 4]: 86%
95	0	–	–	–	N#CCCCCCCCCNc1ccc(O)cc1.O=C(O)/C=C\C(=O)O [Example 5c, 9-[(4-Hydroxyphenyl)amino]nonanenitrile (Z)-2-butenedioate]	0	25	inhibition [1, 4]: 82%
100	0	–	–	–	Cl.N#CCCCCCCNc1ccccc1O [Example 3c, 7-[(2-Hydroxyphenyl)amino]heptanenitrile monohydrochloride]	4	11	–
–	–	100	100	10	N#CCCCCCCNc1ccc(O)c(CO)c1 [Example 10c, 7-[[4-Hydroxy-3-(hydroxymethyl)phenyl]amino]heptanenitrile monohydrochloride]	–	–	–
–	–	100	100	28	CN(CCCCCCC#N)c1ccc(O)cc1 [Example 6c]	6	–	–
–	–	100	100	0	N#CCCCCCCCNc1ccc(O)cc1.O=C(O)/C=C\C(=O)O [Example 4c, 8-[(4-Hydroxyphenyl)amino]octanenitrile (Z)-2-butenedioate]	17	76	–
95	9	–	–	–	N#CCCCCCCNc1cc(Cl)c(O)c(Cl)c1 [Example 9c, 7-[(3,5-Dichloro-4-hydroxyphenyl)amino]heptanenitrile monohydrochloride]	–	–	–
–	–	–	–	–	N#CCCCCCCNc1ccc(O)cc1 [Example 2d, 7-[(4-Hydroxyphenyl)amino]heptanenitrile]	66	61	inhibition at 1 µM [1, 4]: 92%; inhibition at 1 µM [1, 5]: 98%; inhibition at 1 µM [2]: 42%
65	0	–	–	–	Cc1cc(O)ccc1NCCCCCCC#N.Cl [Example 7c, 7-[(4-Hydroxy-2-methylphenyl)amino]heptanenitrile monohydrochloride]	–	–	% Inhibition in vivo (mean peak intratracheal pressure) ([3]; 300 mg/kg p.o. (footnote b), at 1 hour before challenge): 66%; % Inhibition in vivo (mean peak intratracheal pressure) ([3]; 300 mg/kg p.o. (footnote b), at 4 hours before challenge): 86%
–	–	100	100	0	N#CCCCCNc1ccc(O)cc1 [Example 1c, 5-[(4-Hydroxyphenyl)amino]pentanenitrile]	–	–	–
–	–	100	100	13	Cc1cc(NCCCCCCC#N)ccc1O [Example 8c, 7-[(4-Hydroxy-3-methylphenyl)amino]heptanenitrile monohydrochloride]	–	–	–
